In one assay the test system is TNF release. The assay can be described thus: TNF assay: TNF release from LPS-stimulated human PBMCs (TNF ELISA). It is filed as cell-based. The following applies: read-out: IC50 (TNF assay). The procedure, abridged: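 TNF ELISA on supernatants read-out; cells were 10k human PBMCs/well given LPS at 10 ng/mL for 18 h after a 2 h compound pre-incubation across a concentration series, with IC50 derived for suppression of TNF secretion.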
A general note: An ELISA detects its analyte on a solid surface through an enzyme-linked reagent.

For a further assay, the system named is NF-κB. The experiment in a line: NF-κB assay: THP1-NF-κB-LUC cells, LPS-stimulated secreted luciferase. The format is cell-based. The following applies: THP1-NF-κB-LUC cells, read-out: IC50 (NF-κB assay). An outline of the steps:
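THP1-NF-κB-LUC cells (25k/well) were pretreated with compounds for 2 h, then stimulated with LPS (10 ng/mL) for 18 h. Secreted luciferase was measured and normalized to vehicle, and IC50 was fitted from the concentration series.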

The mark [1] stands for this setting: PBMC, human PBMCs, compounds 2 hours before LPS (10 ng/ml) for 18 hours, supernatant TNF ELISA.
The mark [2] stands for this setting: compounds 2 hours before LPS (10 ng/mL) for 18 hours, secreted luciferase.

This passage reports IC50 results from patent publication US12606528B2, “Methods and materials for inhibiting NF-kB activity” (University of Pittsburgh - Of the Commonwealth System of …, priority 2019, dated 2026).

In general, IC50 refers to the midpoint of a concentration-inhibition curve.

The structures appear in SMILES notation. Where two headings read alike, the source gives them in different places.

Regarding `CC1Oc2c(cc(Br)cc2S(=O)(=O)Nc2ccc(OC(F)(F)F)cc2)N(C)C1=O` (stereo not shown) [BC19783], the IC50 is greater than 10 µM in the assay on TNF release (setting [1]) and less than 0.1 µM with NF-κB (setting [2]).
Turning to `CC1Oc2cc(S(=O)(=O)Nc3ccc(OC(F)(F)F)cc3)c(Br)cc2N(C)C1=O` (stereo not shown) [BC19784], the IC50 with TNF release (setting [1]) was greater than 10 µM; in the assay with NF-κB (setting [2]), 1 to 10 µM.
Take `Cc1ccc(NS(=O)(=O)c2cc(Br)cc3c2OC(C)C(=O)N3C)cc1F` (stereo not shown) [BC19785]: the IC50 is greater than 10 µM with TNF release (setting [1]) and less than 0.1 µM in the assay on NF-κB (setting [2]).
With `CC1Oc2cc(S(=O)(=O)Nc3ccc(F)c(F)c3)c(Br)cc2N(C)C1=O` (stereo not shown) [BC19786], the figures for the IC50 in the assay on TNF release (setting [1]) and in the assay with NF-κB (setting [2]) were greater than 10 µM and 1 to 10 µM, respectively.
In the case of `CC1Oc2c(cc(Br)cc2S(=O)(=O)Nc2ccc(F)c(F)c2)N(C)C1=O` (stereo not shown) [BC19787], the IC50 in the assay on TNF release (setting [1]) is greater than 10 µM; in the assay on NF-κB (setting [2]) it was less than 0.1 µM.
Take `CC1Oc2cc(S(=O)(=O)Nc3ccc(F)c(F)c3)c(Br)cc2N(C)C1=O` (stereo not shown) [BC19788]: the IC50 is greater than 10 µM with TNF release (human PBMCs, compounds 2 hours before LPS (10 ng/ml) for 18 hours, supernatant TNF ELISA) and less than 0.1 µM with NF-κB (setting [2]).
In the case of `CC1Oc2c(cc(Br)cc2S(=O)(=O)Nc2ccccc2)N(C)C1=O` (stereo not shown) [BC19789], the IC50 with TNF release (setting [1]) is 1 to 10 µM; in the assay with NF-κB (setting [2]) it was less than 0.1 µM.
Taken in the same sequence, the figures for `CC1Oc2cc(S(=O)(=O)Nc3ccccc3)c(Br)cc2N(C)C1=O` (stereo not shown) [BC19790] were greater than 10 µM and 1 to 10 µM.
Turning to `CC1Oc2c(cc(Br)cc2S(=O)(=O)Nc2ccc(Cl)cc2)N(C)C1=O` (stereo not shown) [BC19791], the values for the IC50 with TNF release (setting [1]) and with NF-κB (setting [2]) were greater than 10 µM and less than 0.1 µM, respectively.
On to `CC1Oc2cc(S(=O)(=O)Nc3ccc(Cl)cc3)c(Br)cc2N(C)C1=O` (stereo not shown) [BC19792], for which the IC50 with TNF release (setting [1]) is greater than 10 µM; with NF-κB (setting [2]), 1 to 10 µM.
Taken in the same sequence, the figures for `CC1Oc2c(cc(Br)cc2S(=O)(=O)Nc2ccc(C(C)C)cc2)N(C)C1=O` (stereo not shown) [BC19793] were greater than 10 µM and less than 0.1 µM.
For `CC1Oc2cc(S(=O)(=O)Nc3ccc(C(C)C)cc3)c(Br)cc2N(C)C1=O` (stereo not shown) [BC19794] the same measures were greater than 10 µM and 1 to 10 µM.
On to `COc1ccc(NS(=O)(=O)c2cc3c(cc2Br)N(C)C(=O)C(C)O3)cc1` (stereo not shown) [BC19795], for which the IC50 with TNF release (setting [1]) is 1 to 10 µM; in the assay on NF-κB (setting [2]) it was greater than 10 µM.
Taken in the same sequence, the figures for `Cc1ccc(NS(=O)(=O)c2cc(Br)cc3c2OC(C)C(=O)N3C)cc1Cl` (stereo not shown) [BC19796] were 1 to 10 µM and less than 0.1 µM.
Consider `Cc1ccc(NS(=O)(=O)c2cc3c(cc2Br)N(C)C(=O)C(C)O3)cc1Cl` (stereo not shown) [BC19797], for which the IC50 with TNF release (setting [1]) and with NF-κB (setting [2]) was 1 to 10 µM throughout.
With `CC1Oc2c(cc(Br)cc2S(=O)(=O)Nc2ccc(F)cc2F)N(C)C1=O` (stereo not shown) [BC19798], the half-maximal inhibitory concentration (IC50) was 1 to 10 µM in the assay on TNF release (setting [1]) and less than 0.1 µM in the assay with NF-κB (setting [2]).
On to `CC1Oc2cc(S(=O)(=O)Nc3ccc(F)cc3F)c(Br)cc2N(C)C1=O` (stereo not shown) [BC19799], for which the IC50 with TNF release (setting [1]) lay within 1 to 10 µM; in the assay on NF-κB (setting [2]) it was 0.1 to 1 µM.
As to `CCc1cccc(NS(=O)(=O)c2cc(Br)cc3c2OC(C)C(=O)N3C)c1` (stereo not shown) [BC19900], the IC50 in the assay with TNF release (setting [1]) is greater than 10 µM; in the assay on NF-κB (setting [2]), 0.1 to 1 µM.
For `CCc1cccc(NS(=O)(=O)c2cc3c(cc2Br)N(C)C(=O)C(C)O3)c1` (stereo not shown) [BC19901] the same measures were greater than 10 µM and 1 to 10 µM.
Taken in the same sequence, the figures for `CC1Oc2c(cc(Br)cc2S(=O)(=O)Nc2cccc(F)c2)N(C)C1=O` (stereo not shown) [BC19902] were greater than 10 µM and less than 0.1 µM.
Taken in the same sequence, the figures for `CC1Oc2cc(S(=O)(=O)Nc3cccc(F)c3)c(Br)cc2N(C)C1=O` (stereo not shown) [BC19903] were greater than 10 µM and 0.1 to 1 µM.
For the compound `CC1Oc2c(cc(Br)cc2S(=O)(=O)Nc2cccc(Cl)c2)N(C)C1=O` (stereo not shown) [BC19904], the IC50 in the assay on TNF release (setting [1]) was greater than 10 µM; in the assay on NF-κB (setting [2]) it was less than 0.1 µM.
Taken in the same sequence, the figures for `CC1Oc2cc(S(=O)(=O)Nc3cccc(Cl)c3)c(Br)cc2N(C)C1=O` (stereo not shown) [BC19905] were greater than 10 µM and 1 to 10 µM.
Taken in the same sequence, the figures for `Cc1ccc(NS(=O)(=O)c2cc(Br)cc3c2OC(C)C(=O)N3C)cc1` (stereo not shown) [BC19906] were 1 to 10 µM and less than 0.1 µM.
For `CC1Oc2cc(S(=O)(=O)Nc3ccc(F)cc3Cl)c(Br)cc2N(C)C1=O` (stereo not shown) [BC19907], the IC50 with TNF release (setting [1]) and with NF-κB (setting [2]) was greater than 10 µM in each case.
For `CC1Oc2c(cc(Br)cc2S(=O)(=O)Nc2ccc(F)cc2Cl)N(C)C1=O` (stereo not shown) [BC19908], the IC50 is greater than 10 µM in the assay with TNF release (setting [1]) and less than 0.1 µM in the assay on NF-κB (setting [2]).
`COc1ccc(NS(=O)(=O)c2cc(Br)cc3c2OC(C)C(=O)N3C)cc1Cl` (stereo not shown) [BC19909]: the IC50 in the assay with TNF release (setting [1]) and in the assay on NF-κB (setting [2]) was greater than 10 µM in each case.
`CC1Oc2cc(S(=O)(=O)Nc3ccc(F)cc3)c(Br)cc2N(C)C1=O` (stereo not shown) [BC19910]: the values for the IC50 in the assay with TNF release (setting [1]) and in the assay with NF-κB (setting [2]) were greater than 10 µM and 1 to 10 µM, respectively.
In the case of `CC1Oc2c(cc(Br)cc2S(=O)(=O)Nc2ccc(F)cc2)N(C)C1=O` (stereo not shown) [BC19911], the IC50 in the assay with TNF release (setting [1]) is greater than 10 µM; with NF-κB (setting [2]) it was less than 0.1 µM.
Taken in the same sequence, the figures for `Cc1ccc(NS(=O)(=O)c2cc3c(cc2Br)N(C)C(=O)C(C)O3)cc1` (stereo not shown) [BC19912] were greater than 10 µM and greater than 10 µM.
`CCC1Oc2c(cc(Br)cc2S(=O)(=O)Nc2ccc(F)cc2F)N(C)C1=O` (stereo not shown) [BC19913]: the IC50 with TNF release (setting [1]) is greater than 10 µM; in the assay with NF-κB (setting [2]), less than 0.1 µM.
For `CCC1Oc2cc(S(=O)(=O)Nc3ccc(F)cc3F)c(Br)cc2N(C)C1=O` (stereo not shown) [BC19914] the same measures were greater than 10 µM and 0.1 to 1 µM.
For `CCc1cccc(NS(=O)(=O)c2cc(Br)cc3c2OC(CC)C(=O)N3C)c1` (stereo not shown) [BC19915] the same measures were greater than 10 µM and less than 0.1 µM.
Regarding `CCc1cccc(NS(=O)(=O)c2cc3c(cc2Br)N(C)C(=O)C(CC)O3)c1` (stereo not shown) [BC19916], the values for the IC50 in the assay with TNF release (setting [1]) and in the assay on NF-κB (setting [2]) were greater than 10 µM and 1 to 10 µM, respectively.
As to `O=C(O)c1cc2c(c(NS(=O)(=O)c3ccc(F)c(F)c3)c1)N1CCCC1C(=O)N2` (stereo not shown) [BC19917], the concentration for half-maximal inhibition (IC50) in the assay on TNF release (PBMC, LPS-stimulated human PBMCs, TNF ELISA) was greater than 10 µM; in the assay with NF-κB (LPS-stimulated) it was greater than 10 µM.
Consider `COc1ccc(NS(=O)(=O)c2cc3c(cc2Br)N(C)C(=O)C(C)O3)cc1Cl` (stereo not shown) [BC19919], for which the concentration for half-maximal inhibition (IC50) in the assay with TNF release (setting [1]) and with NF-κB (setting [2]) was greater than 10 µM in each case.
In the case of `CC1Oc2cc(S(=O)(=O)Nc3ccc(C#N)cc3)c(Br)cc2N(C)C1=O` (stereo not shown) [BC19920], the results for the IC50 with TNF release (setting [1]) and in the assay with NF-κB (setting [2]) were greater than 10 µM and 0.1 to 1 µM, respectively.
Consider `CCC1Oc2c(cc(Br)cc2S(=O)(=O)Nc2ccc(OC(F)(F)F)cc2)N(C)C1=O` (stereo not shown) [BC19921], for which the IC50 with TNF release (setting [1]) is 1 to 10 µM; with NF-κB (setting [2]), less than 0.1 µM.
For `CCC1Oc2cc(S(=O)(=O)Nc3ccc(OC(F)(F)F)cc3)c(Br)cc2N(C)C1=O` (stereo not shown) [BC19922] the same measures were greater than 10 µM and less than 0.1 µM.
With `CCC1Oc2c(cc(Br)cc2S(=O)(=O)Nc2ccc(C)c(F)c2)N(C)C1=O` (stereo not shown) [BC19923], the IC50 in the assay on TNF release (setting [1]) is 1 to 10 µM; with NF-κB (setting [2]), less than 0.1 µM.
For `CCC1Oc2cc(S(=O)(=O)Nc3ccc(C)c(F)c3)c(Br)cc2N(C)C1=O` (stereo not shown) [BC19924] the same measures were 1 to 10 µM and less than 0.1 µM.
For the compound `CCC1Oc2c(cc(Br)cc2S(=O)(=O)Nc2ccc(F)c(F)c2)N(C)C1=O` (stereo not shown) [BC19925], the IC50 was 1 to 10 µM in the assay with TNF release (setting [1]) and less than 0.1 µM in the assay with NF-κB (setting [2]).
Take `CCC1Oc2cc(S(=O)(=O)Nc3ccc(F)c(F)c3)c(Br)cc2N(C)C1=O` (stereo not shown) [BC19926]: the IC50 is greater than 10 µM in the assay on TNF release (setting [1]) and less than 0.1 µM in the assay on NF-κB (setting [2]).
For `CCC1Oc2c(cc(Br)cc2S(=O)(=O)Nc2ccccc2)N(C)C1=O` (stereo not shown) [BC19927] the same measures were 1 to 10 µM and less than 0.1 µM.
